Assay [1] relates to PB-1 antibody. In words: Competitive ELISA of GAL691 and known AGEs against PB-1 (Example 31). Format: binding, mouse. Conditions: immobilized A-peak-BSA; competitor 0.04 to 2.5 mM; PB-1 0.1 μg/mL. How it is done:
Competitive ELISA was conducted using the reagents described in Example 13. A solution of A-peak-BSA prepared into 1 μg/mL in a coating solution was added at 100 μL/well to a 96-well microtiter plate (Costar) and incubated overnight at 4° C.
(§1) Each well after the immobilization treatment was washed three times with a washing solution (300 μL), and a blocking solution (200 μL) was added thereto and left at room temperature for 1 hour.
GAL691 (prepared in Example 16), GLAP (prepared in Example 12), Lys-hydroxy-triosidine (prepared in Example 17), GA-pyridine (prepared in Example 28), GOLD (prepared in Example 29), and Z-Lys were each dissolved in a phosphate buffer solution (0.2 M, pH 7.4) to prepare a 100 mM solution. Then, a 10 mM solution was prepared by dilution 10-fold with a diluting solution containing BSA (1 mg/mL, FUJIFILM Wako Pure Chemical Corp.). Sample solutions of 4-fold dilution series of 0.04, 0.16, 0.63, and 2.5 mM were further prepared with a diluting solution containing a 10% (v/v) phosphate buffer solution and 1 mg/mL BSA. Ten-fold dilutions of a phosphate buffer solution with a diluting solution containing 1 mg/mL BSA were prepared as blank solutions containing no sample in the same way as above. A 0.1 μg/mL solution of the PB-1 antibody was prepared with a diluting solution containing 1 mg/mL BSA.
Each well treated with the blocking solution was washed three times with a washing solution (300 μL), and the sample solutions of 4-fold dilution series (50 μL each) and the PB-1 antibody dilution solution (50 μL) were added thereto, stirred with a plate mixer for 2 minutes, and then incubated at room temperature for 1 hour.
After the competitive reaction, each well was washed three times with a washing solution (300 μL), and peroxidase-labeled anti-mouse IgG (H+L) polyclonal antibody, F(ab′)2 fragment (Kirkegaard & Perry Laboratories, Inc.) diluted into 0.05 μg/mL with a diluting solution containing 1 mg/mL BSA was added at 100 μL/well and left standing at room temperature for 1 hour.
After washing three times with a washing solution (300 μL), a substrate solution (ELISA POD substrate TMB kit (Popular), Nacalai Tesque, Inc.) was added at 100 μL/well and incubated at room temperature for 10 minutes under light shielding. Then, color development was terminated by the addition of 2 N sulfuric acid (50 μL).
Absorbance was measured at a dominant wavelength of 450 nm and a sub-wavelength of 650 nm with a microplate reader (Cytation 5, BioTek Instrument Inc.), and the absorbance at the sub-wavelength was subtracted from the absorbance at the dominant wavelength. Change in the absorbance of GAL691, GLAP, Lys-hydroxy-triosidine, GA-pyridine, GOLD, and Z-Lys was indicated as relative values to the absorbance of the blank solution.
For orientation: ELISA stands for enzyme-linked immunosorbent assay.

The test system of assay [2] is POD-labeled novel monoclonal antibody (SJ-5). The experiment in a line: Competitive ELISA of GAL13, GLAP, Z-Lys-OH against SJ-5 (Example 13). Format: binding, mouse. Conditions: immobilized Glycer-AGEs-BSA; competitor 0.0063 to 2 mg/mL. How it is done:
A solution of BSA containing AGEs derived from glyceraldehyde (stock solution: 10 mg/mL PBS solution) prepared into 1 μg/mL in a coating solution was added at 100 μL/well to a 96-well microtiter plate (COSTAR) and incubated overnight at 4° C.
as §1
GAL13 (prepared in Example 2), GLAP (prepared in Example 12), and Z-Lys-OH (Tokyo Chemical Industry Co., Ltd.) were each dissolved in a phosphate buffer solution (0.2 M, pH 7.4) to prepare a 20 mg/mL solution. Sample solutions of 2-fold dilution series from 0.0063 to 2 mg/mL (6 points) were further prepared by dilution with a diluting solution. A POD-labeled novel monoclonal antibody (SJ-5) solution was diluted 16,000-fold with a diluting solution containing BSA (1 mg/mL, FUJIFILM Wako Pure Chemical Corp.) to prepare a POD-labeled SJ-5 antibody dilution solution. […]
Absorbance was measured at a dominant wavelength of 450 nm and a sub-wavelength of 650 nm with a microplate reader (Cytation 5, BioTek Instrument Inc.), and the absorbance at the sub-wavelength was subtracted from the absorbance at the dominant wavelength.

Assay [3] deals with HUVEC (human umbilical vein endothelial cells). The experiment in a line: Neutralization test of vascular endothelial cell lumen formation inhibition (Example 14). Format: cell-based. The settings on record: Matrigel matrix; 8 hours culture. Here is the method: Matrigel matrix (Corning Inc.) was placed in a refrigerator and thawed overnight. The thawed Matrigel matrix was added at 300 μL/well to a 12-well plate (Corning Inc.) and hardened by still standing at 37° C. for 1 hour in a CO2 incubator (ESPEC Corp.).
10 μL of Glycer-AGEs-BSA (10 mg/mL) prepared in Example 1 or 10 μL of control BSA (10 mg/mL), phosphate-buffered saline (PBS, FUJIFILM Wako Pure Chemical Corp.), and 90 μL of SJ-5 (10 mg/mL) or a control antibody (10 mg/mL) were added to a 1.5 mL tube (Watson) and left standing at room temperature for 10 minutes. Then, a supernatant was recovered by centrifugation at 14000 rpm for 15 minutes using a centrifuge (Thermo Fisher Scientific Inc.).
HUVEC (human umbilical vein endothelial cells, National Institutes of Biomedical Innovation, Health and Nutrition, JCRB cell bank) was cultured in a 10 cm dish (Corning Inc.) using 10 mL of a medium for HUVEC (KAC Co., Ltd.).
The cultured HUVEC was washed with 10 mL of PBS. Then, 1 mL of trypsin-EDTA (FUJIFILM Wako Pure Chemical Corp.) was added thereto and left standing at room temperature for 3 minutes. […]
After the centrifugation, the supernatant was discarded, and precipitated cells were resuspended by the addition of 1 mL of a medium for HUVEC. […] Then, the number of live cells was counted in Auto Cell Counter EVE (NanoEnTek Inc.). […]

Assay [4] deals with CD31. In words: Endothelial-to-mesenchymal transition inhibition test, real-time PCR (Example 15). Format: cell-based, human. Conditions: HUVEC; β-actin internal standard; 8 hours. Here is the method: (§2) 10 μL of Glycer-AGEs-BSA (10 mg/mL) prepared in Example 1, PBS, and 90 μL of SJ-5 (10 mg/mL) or a control antibody (10 mg/mL) were added to a 1.5 mL tube (Watson). Alternatively, 90 μL of a PBS solution of control BSA (10 mg/mL) was added. These solutions were left standing at room temperature for 10 minutes. Then, a supernatant was recovered by centrifugation at 14000 rpm for 15 minutes using a centrifuge (Thermo Fisher Scientific Inc.).
(§3) HUVEC was cultured in a 10 cm dish using 10 mL of a medium for HUVEC.
(§4) The cultured HUVEC was washed with 10 mL of PBS. Then, 1 mL of trypsin-EDTA was added thereto and left standing at room temperature for 3 minutes. HUVEC thus left standing was confirmed to be detached from the dish, and trypsin-EDTA was neutralized by the addition of 10 mL of a medium for HUVEC. After the neutralization, the whole amount was transferred to a 50 mL tube and centrifuged at 1500 rpm for 3 minutes using a centrifuge.
(§5) After the centrifugation, the supernatant was discarded, and precipitated cells were resuspended by the addition of 1 mL of a medium for HUVEC. A 10 μL aliquot from the resuspension was mixed with 10 μL of Trypan Blue, and 10 μL thereof was added to a counting chamber. Then, the number of live cells was counted in Auto Cell Counter EVE. The cell suspension was diluted into 2.5×10^5 cells/mL with a medium for HUVEC and inoculated at 400 μL/well to the Matrigel prepared in (1). After the inoculation, each reaction solution prepared in (2) was added at 100 μL/well, followed by culture for 8 hours in a CO2 incubator.
(§6) Each well was washed three times with 1 mL of PBS, and Cell Recovery Solution (Corning Inc.) was added at 500 μL/well.
(§7) The cells and the Matrigel matrix were scraped off using Blue Chip (Watson), recovered into a 1.5 mL tube, and transferred to the 1.5 mL tube after rinsing of each well again with 500 μL of Cell Recovery Solution. The 1.5 mL tube was mixed by inversion five times and then left standing on ice for 1 hour to confirm that the Matrigel matrix was completely degraded. After the Matrigel matrix degradation, a supernatant was discarded by centrifugation at 800 rpm at 4° C. Precipitated cells were gently suspended in 1 mL of ice-cooled PBS and centrifuged at 800 rpm at 4° C. to discard a supernatant. Precipitated cells were gently suspended again in 1 mL of ice-cooled PBS and centrifuged at 800 rpm at 4° C.
(§8) 125 μL of CellAmp Washing Buffer attached to the kit was added to the cells precipitated by centrifugation, and mixed. […]
(§9) After the addition, real-time PCR was performed with QuantStudio™ 12K Flex real-time PCR system (Thermo Fisher Scientific Inc.) to quantify gene expression levels. […]
In general terms: Real-time PCR tracks product formation cycle by cycle.

Assay [5] deals with α-SMA. The assay is described as above. The settings on record: HUVEC; β-actin internal standard; 8 hours. Format: cell-based, human. Here is the method:
as §2, §3, §4, §5, §6, §7, §8, §9

Assay [6] deals with HUVEC. In words: Neutralization test of vascular endothelial cell lumen formation inhibition using PB-1 (Example 35). The class given is cell-based, human. The settings on record: Matrigel matrix; 8-hour culture. Here is the method:
Matrigel matrix was prepared by the same operation as in Example 14.
10 μL of Glycer-AGEs-BSA (10 mg/mL) prepared in Example 1, 10 μL of phosphate-buffered saline (PBS, FUJIFILM Wako Pure Chemical Corp.), and 90 μL of the PB-1 antibody (10 mg/mL) or a control antibody (10 mg/mL) were added to a 1.5 mL tube (Watson) and left standing at room temperature for 10 minutes. Then, a supernatant was recovered by centrifugation at 14000 rpm for 15 minutes using a centrifuge (Thermo Fisher Scientific Inc.).
(3) A lumen formation inhibition test was conducted by the same operation as in Example 14. As shown in the drawing, HUVEC was confirmed to form a lumen in the Matrigel matrix in the control BSA addition group. […] Furthermore, this inhibition of lumen formation was neutralized by the reaction solution of PB-1.

With `CC(=O)NC(CCCC[n+]1ccc(CO)c(O)c1)C(=O)O` (stereo not shown) [GA-pyridine], the “change in absorbance relative to blank (competition for PB-1 binding)” value (from here on “change in absorbance relative to blank”) in assay [1] is “no reduction in absorbance was observed”.

With `CC(=O)N[C@@H](CCCC[n+]1cc(O)cc(CO)c1)C(=O)O` [GLAP], in assay [2], the “change in absorbance (competition for SJ-5 binding)” value was “reduction in absorbance was observed for neither”. Further, the “change in absorbance relative to blank” value in assay [1] was “no reduction in absorbance was observed”.

As for `CC(=O)NC(CCCCn1cc[n+](CCCCC(NC(C)=O)C(=O)O)c1)C(=O)O` (stereo not shown) [GOLD], in assay [1], the “change in absorbance relative to blank” value was “no reduction in absorbance was observed”.

Turning to `NCCCC[C@H](NC(=O)OCc1ccccc1)C(=O)O` [Z-Lys-OH, N^α-Carbobenzoxy-L-lysine], the “change in absorbance (competition for SJ-5 binding)” value in assay [2] was “reduction in absorbance was observed for neither”. In addition, the “change in absorbance relative to blank” value in assay [1] was “no reduction in absorbance was observed”.

As to “Glycer-AGEs-BSA: bovine serum albumin containing AGEs derived from glyceraldehyde [reference compound]”, the “effect on lumen formation of HUVEC” value in assay [3] and in assay [6] was “inhibited lumen formation” in each case. Moreover, in assay [4], the “expression level of CD31” value is recorded as “decreased”. For the same compound, the “expression level of α-SMA” value in assay [5] was “increased”.
